Measurements: patent US9492416B2, “Use of caftaric acid and lactic bacterium in food supplement for regulating skin pigmentation” (Nestec S.A., priority 2010, dated 2016)

Test system: B16 murine melanocyte cell line
Assay: Production of melanin by B16 murine melanocyte cell line
Format: cell-based
Conditions: B16 melanocytes, 72 hours; Kojic acid at 400 μg/mL
Procedure: In order to evaluate the potential beneficial effect of ingredients towards skin de- or pro-pigmentation we used 2D culture of murine melanocytes (B16) and we performed 2 tests: 1—assessment of melanin production and 2—assessment of tyrosinase production.
1. The Cell Culture Conditions. • B16 cells were cultured in DMEM 1 g/L glucose without phenol red supplemented with 10% foetal calf serum, in a humidified chamber at 37° C. and containing 5% CO2.
2. The Production of Melanin by B16 Murine Melanocyte Cell Line. • Cells were incubated with the selected ingredients or the test references (Kojic acid at 400 μg/mL) for 72 hours, in the presence or absence of NDP-MSH an analog of MSH. The total quantity of melanin (extracellular and intracellular) was evaluated by measurement of the optical density at 405 nm of each sample against melanin standards in presence or in absence of NDP-MSH.
Caftaric acid has been pre-treated with La-1 [(spray dried culture Lactobacillus Johnsonii CNCM I-1225, 1.19E10 cfu/g) for 24 hours in a thermomixer at 40° C., under shaking conditions. After incubation, samples have been centrifuged 5 minutes at 3000 g. After this treatment the probiotic as such is not present anymore in the sample however the presence of its metabolites can't be excluded.

Structure (SMILES): O=c1cc(CO)occ1O [Kojic acid]
- melanin production (in words): decrease in melanin production
